Measurements as given in ChEMBL document CHEMBL4138253, “Synthesis and Biological Evaluation of a Series of Bile Acid Derivatives as FXR Agonists for Treatment of NASH” (ACS Med Chem Lett, 2017).

Legend:
Bile acid receptor = target: T1, Bile acid receptor (Homo sapiens, UniProt Q96RI1); test: Agonist activity at recombinant human GST-tagged FXR LBD (193 to 472 residues) expressed in baculovirus-infected insect cells assessed as recruitment of biotinylated SRC1 peptide measured after 1 hr by Alphascreen assay
T1 sequence (Q96RI1 whole entry): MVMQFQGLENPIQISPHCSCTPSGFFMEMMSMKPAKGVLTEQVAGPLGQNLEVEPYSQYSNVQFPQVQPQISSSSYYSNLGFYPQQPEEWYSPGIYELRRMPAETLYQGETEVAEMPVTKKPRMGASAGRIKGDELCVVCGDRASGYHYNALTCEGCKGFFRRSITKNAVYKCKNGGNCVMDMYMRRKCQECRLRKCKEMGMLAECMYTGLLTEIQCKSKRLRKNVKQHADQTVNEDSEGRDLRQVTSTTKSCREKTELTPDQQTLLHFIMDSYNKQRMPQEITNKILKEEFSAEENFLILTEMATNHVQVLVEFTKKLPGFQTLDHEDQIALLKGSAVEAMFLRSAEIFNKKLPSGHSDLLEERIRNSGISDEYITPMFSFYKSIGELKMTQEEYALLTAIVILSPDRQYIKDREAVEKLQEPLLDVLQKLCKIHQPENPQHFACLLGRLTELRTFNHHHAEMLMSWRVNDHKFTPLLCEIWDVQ

[1] = target: T2, Bile acid receptor (Homo sapiens) (UniProt Q96RI1); test: Agonist activity at recombinant human GST-tagged FXR LBD (193 to 472 residues) expressed in baculovirus-infected insect cells assessed as recruitment of biotinylated SRC1 peptide measured after 1 hr by Alphascreen assay relative to CDCA
T2 sequence (whole entry): T1 sequence (Q96RI1 whole entry)

Compound `CC[C@H]1[C@@H](O)[C@@H]2[C@H](CC[C@]3(C)[C@@H]([C@H](C)CCC(=O)NCC(=O)O)CC[C@@H]23)[C@@]2(C)CC[C@@H](O)C[C@@H]12` has an EC50 (Bile acid receptor) of 290 nM and an Efficacy [1] of 135%.

`CC[C@H]1[C@@H](O)[C@@H]2[C@H](CC[C@]3(C)[C@@H]([C@H](C)CCCNS(=O)(=O)c4ccccc4)CC[C@@H]23)[C@@]2(C)CC[C@@H](O)C[C@@H]12` showed an EC50 (Bile acid receptor) of 230 nM and an Efficacy [1] of 79%.

`CC[C@H]1[C@@H](O)[C@@H]2[C@H](CC[C@]3(C)[C@@H]([C@H](C)CCNC(=O)OC(C)C)CC[C@@H]23)[C@@]2(C)CC[C@@H](O)C[C@@H]12` gave an EC50 (Bile acid receptor) of 300 nM and an Efficacy [1] of 162%.

`CC[C@H]1[C@@H](O)[C@@H]2[C@H](CC[C@]3(C)[C@@H]([C@H](C)CCC(=O)O)CC[C@@H]23)[C@@]2(C)CCC(C)C[C@@H]12` (stereo partly specified) showed an EC50 (Bile acid receptor) of 1500 nM and an Efficacy [1] of 49%.

For `CC[C@H]1[C@@H](O)[C@@H]2[C@H](CC[C@]3(C)[C@@H]([C@H](C)CCNC(=O)c4ccccn4)CC[C@@H]23)[C@@]2(C)CC[C@@H](O)C[C@@H]12`, the EC50 (Bile acid receptor) was 30 nM and the Efficacy [1] was 88%.

In the case of `CC[C@H]1[C@@H](O)[C@@H]2[C@H](CC[C@]3(C)[C@@H]([C@H](C)CCNC(=O)OC4CCC4)CC[C@@H]23)[C@@]2(C)CC[C@@H](O)C[C@@H]12`, the EC50 (Bile acid receptor) is reported as 150 nM and the Efficacy [1] is reported as 100%.

With `CC[C@H]1[C@@H](O)[C@@H]2[C@H](CC[C@]3(C)[C@@H]([C@H](C)CCNC(N)=O)CC[C@@H]23)[C@@]2(C)CC[C@@H](O)C[C@@H]12` the EC50 (Bile acid receptor) was 230 nM and the Efficacy [1] was 104%.

Compound `CC[C@H]1[C@@H](O)[C@@H]2[C@H](CC[C@]3(C)[C@@H]([C@H](C)CCCNC(N)=O)CC[C@@H]23)[C@@]2(C)CC[C@@H](O)C[C@@H]12` has an EC50 (Bile acid receptor) of 130 nM and an Efficacy [1] of 95%.

With `CC[C@H]1[C@@H](O)[C@@H]2[C@H](CC[C@]3(C)[C@@H]([C@H](C)CCCNS(C)(=O)=O)CC[C@@H]23)[C@@]2(C)CC[C@@H](O)C[C@@H]12` the EC50 (Bile acid receptor) was 110 nM and the Efficacy [1] was 85%.

`CC[C@H]1[C@@H](O)[C@@H]2[C@H](CC[C@]3(C)[C@@H]([C@H](C)CCNS(=O)(=O)C4CC4)CC[C@@H]23)[C@@]2(C)CC[C@@H](O)C[C@@H]12` showed an EC50 (Bile acid receptor) of 230 nM and an Efficacy [1] of 87%.

`CC[C@H]1[C@@H](O)[C@@H]2[C@H](CC[C@]3(C)[C@@H]([C@H](C)CCC(=O)S)CC[C@@H]23)[C@@]2(C)CC[C@@H](O)C[C@@H]12` gave an EC50 (Bile acid receptor) of 240 nM and an Efficacy [1] of 226%.

`CC[C@H]1[C@@H](O)[C@@H]2[C@H](CC[C@]3(C)[C@@H]([C@H](C)CCC(=O)O)CC[C@@H]23)[C@@]2(C)Cc3cn[nH]c3C[C@@H]12` showed an EC50 (Bile acid receptor) of 300 nM and an Efficacy [1] of 136%.

Compound `CC[C@H]1[C@@H](O)[C@@H]2[C@H](CC[C@]3(C)[C@@H]([C@H](C)CCC(N)=O)CC[C@@H]23)[C@@]2(C)CC[C@@H](O)C[C@@H]12` has an EC50 (Bile acid receptor) of 600 nM and an Efficacy [1] of 142%.

Work on `CC[C@H]1[C@@H](O)[C@@H]2[C@H](CC[C@]3(C)[C@@H]([C@H](C)CCC(=O)O)CC[C@@H]23)[C@@]2(C)CC[C@@H](OC)C[C@@H]12` yielded an EC50 (Bile acid receptor) of 1800 nM and an Efficacy [1] of 108%.

`CC[C@H]1[C@@H](O)[C@@H]2[C@H](CC[C@]3(C)[C@@H]([C@H](C)CCC(=O)O)CC[C@@H]23)[C@@]2(C)CCC(F)(F)C[C@@H]12` showed an EC50 (Bile acid receptor) of 1100 nM and an Efficacy [1] of 109%.

Work on `CC[C@H]1[C@@H](O)[C@@H]2[C@H](CC[C@]3(C)[C@@H]([C@H](C)CCNS(C)(=O)=O)CC[C@@H]23)[C@@]2(C)CC[C@@H](O)C[C@@H]12` yielded an EC50 (Bile acid receptor) of 280 nM and an Efficacy [1] of 128%.

`CC[C@H]1[C@@H](O)[C@@H]2[C@H](CC[C@]3(C)[C@@H]([C@H](C)CCC(C)=O)CC[C@@H]23)[C@@]2(C)CC[C@@H](O)C[C@@H]12` showed an EC50 (Bile acid receptor) of 1000 nM and an Efficacy [1] of 263%.

Compound `CC[C@H]1[C@@H](O)[C@@H]2[C@H](CC[C@]3(C)[C@@H]([C@H](C)CCCNC(=O)N4CC[C@H](O)C4)CC[C@@H]23)[C@@]2(C)CC[C@@H](O)C[C@@H]12` has an EC50 (Bile acid receptor) of 370 nM and an Efficacy [1] of 129%.
